Laboratory results: ChEMBL document CHEMBL6087404, “Naphthoindole-2-carboxamides as a lipophilic chemotype of hetarene-anthraquinones potent against P-gp resistant tumor cells” (Eur J Med Chem, 2025)
Calls of active or inactive are those of the source. The rule behind the calls is not given here.

How the values were obtained:
A549 = assay: Antiproliferative activity against human A549 cells incubated for 72 hrs by MTT assay; type: functional, cell-based; settings: A549, 72 h
K562 = assay: Antiproliferative activity against human K562 cells incubated for 72 hrs by MTT assay; type: functional, cell-based; settings: K562, 72 h
K562/4 = assay: Antiproliferative activity against human K562/4 cells incubated for 72 hrs by MTT assay; type: functional, cell-based; settings: K562/4, 72 h
[1] = Resistance index, ratio of IC50 for human K562/4 cells to IC50 for human K562 cells; type: functional
[2] = Antiproliferative activity against hFB-hTERT6 cells incubated for 72 hrs by MTT assay; type: toxicity, cell-based; settings: human
[3] = Selectivity index, ratio of IC50 for human hFB-hTERT6 cells to IC50 for human K562 cells; type: toxicity; settings: hFB-hTERT6 cells and K562 cells, read-out: Ratio IC50
[4] = Drug uptake in human K562 cells at 2 uM incubated for 3 to 120 hrs by flow cytometry; type: ADME, cell-based; settings: k562, 2 µM, time 3-120 hrs
[5] = Drug uptake in P-gp+ human […] cells at 3 uM incubated for 10 mins by confocal microscopy; type: ADME, cell-based; settings: k562/4, 10 min
[6] = Drug uptake in human HCT-116 cells at 3 uM incubated for 10 mins by confocal microscopy; type: ADME, cell-based; settings: hct-116, 10 min
[7] = Drug uptake in cytoplasmic membrane of human HCT-116 cells at 3 uM incubated for 1 hr by confocal microscopy; type: ADME, cell membranes, Cytoplasm membrane; settings: hct-116, 1 h
[8] = Drug uptake in nuclear membrane of human HCT-116 cells at 3 uM incubated for 1 hr by confocal microscopy; type: ADME, cell membranes; settings: hct-116, 1 h
[9] = Drug uptake in lysosome of human HCT-116 cells at 3 uM incubated for 1 hr by LysoTracker Deep Red dye based confocal microscopy; type: ADME, subcellular; settings: hct-116, 1 h
DNA = assay: Binding affinity to pBR322 plasmid DNA (unknown origin) assessed as effect on electrophoretic mobility of DNA at 1 to 40 uM incubated for 30 mins; type: nucleic-acid assay; settings: Escherichia coli, dose 1-40 µM
[10] = biological target: T1, DNA topoisomerase 1 (Homo sapiens) (UniProt P11387); assay: Inhibition of Top1 (unknown origin)-mediated unwinding of supercoiled DNA at 5 uM incubated for 30 mins by electrophoretic analysis
T1 sequence (whole entry): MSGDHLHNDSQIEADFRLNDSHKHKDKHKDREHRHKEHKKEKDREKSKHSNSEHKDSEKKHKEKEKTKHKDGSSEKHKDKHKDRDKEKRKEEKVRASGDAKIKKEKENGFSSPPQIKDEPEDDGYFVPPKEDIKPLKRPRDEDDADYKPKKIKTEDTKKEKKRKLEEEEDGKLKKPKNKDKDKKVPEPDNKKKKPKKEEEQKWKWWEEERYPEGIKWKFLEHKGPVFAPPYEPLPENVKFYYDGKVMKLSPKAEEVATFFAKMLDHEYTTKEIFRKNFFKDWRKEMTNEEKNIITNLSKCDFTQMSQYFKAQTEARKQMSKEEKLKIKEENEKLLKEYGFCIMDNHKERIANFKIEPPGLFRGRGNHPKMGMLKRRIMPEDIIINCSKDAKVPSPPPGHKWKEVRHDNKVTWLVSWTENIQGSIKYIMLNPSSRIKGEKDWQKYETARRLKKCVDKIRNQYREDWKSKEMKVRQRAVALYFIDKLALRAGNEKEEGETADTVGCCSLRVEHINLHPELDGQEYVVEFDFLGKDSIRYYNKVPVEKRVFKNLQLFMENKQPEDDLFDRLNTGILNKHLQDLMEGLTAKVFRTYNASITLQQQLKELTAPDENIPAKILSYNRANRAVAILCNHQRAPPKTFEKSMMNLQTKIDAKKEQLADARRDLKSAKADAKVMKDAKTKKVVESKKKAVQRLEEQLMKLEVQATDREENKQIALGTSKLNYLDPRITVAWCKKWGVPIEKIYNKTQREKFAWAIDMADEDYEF

| Structure (SMILES) | IC50 (A549) [nM] | IC50 (K562) [nM] | IC50 (K562/4) [nM] | Ratio IC50 [1] | IC50 at 72 h [2] [nM] | selectivity ratio [3] | Drug uptake [4] | Drug uptake [5] | Drug uptake [6] | Drug uptake [7] | Drug uptake [8] | Drug uptake [9] | Activity (DNA) | inhibition [10] |
| --- | --- | --- | --- | --- | --- | --- | --- | --- | --- | --- | --- | --- | --- | --- |
| N[C@H]1CCN(C(=O)c2cc3c(O)c4c(c(O)c3o2)C(=O)c2ccccc2C4=O)C1 | > 50000 | 1600 | 1700 | 1.1 | > 50000 | > 31.2 |  |  |  |  |  |  |  |  |
| CS(=O)(=O)O.NC1CCCN(C(=O)c2cc3c(O)c4c(c(O)c3[nH]2)C(=O)c2ccccc2C4=O)C1 (racemic) | 1200 | 1200 | 1000 | 0.8 | 1800 | 1.5 |  |  |  |  |  |  |  |  |
| CS(=O)(=O)O.O=C1c2ccccc2C(=O)c2c1c(O)c1cc(C(=O)N3CCNCC3)[nH]c1c2O | 4400 | 1000 | 1200 | 1.2 | 3300 | 3.3 |  |  |  |  |  |  |  |  |
| COc1cccc2c1C(=O)c1c(O)c3c(c(O)c1C2=O)C[C@@](O)(C(=O)CO)C[C@@H]3O[C@H]1C[C@H](N)[C@H](O)[C@H](C)O1 [DOXORUBICIN] |  |  | 14000 |  |  |  |  |  |  |  |  |  |  |  |
| CS(=O)(=O)O.O=C(N[C@H]1CCNC1)c1cc2c(O)c3c(c(O)c2[nH]1)C(=O)c1ccccc1C3=O | 4300 | 3500 | 43000 | 12.3 | 5500 | 1.6 |  |  |  |  |  |  |  |  |
| CS(=O)(=O)O.O=C(N[C@@H]1CCNC1)c1cc2c(O)c3c(c(O)c2[nH]1)C(=O)c1ccccc1C3=O | 4000 | 2300 | 47000 | 20.4 | 5000 | 2.2 |  |  |  |  |  |  |  |  |
| N[C@H]1CCN(C(=O)c2cc3c(O)c4c(c(O)c3s2)C(=O)c2ccccc2C4=O)C1 | 2000 |  | 400 | 1.2 | 1800 | 6 |  |  |  |  |  |  |  |  |
| Cc1[nH]c2c(O)c3c(c(O)c2c1C(=O)N1CC[C@H](N)C1)C(=O)c1ccccc1C3=O | 1900 | 400 | 50000 | 125 | 5000 | 12.5 | Not_active | Active | Active | Not_active | Not_active | Active | inactive | Active; Slightly Less Potent |
| CS(=O)(=O)O.O=C(NC1CCCNC1)c1cc2c(O)c3c(c(O)c2[nH]1)C(=O)c1ccccc1C3=O (racemic) | 9000 | 1200 | 2300 | 1.9 | 4400 | 3.7 |  |  |  |  |  |  |  |  |
| CS(=O)(=O)O.N[C@@H]1CCN(C(=O)c2cc3c(O)c4c(c(O)c3[nH]2)C(=O)c2ccccc2C4=O)C1 | 4300 | 1300 | 1200 | 0.9 | 4300 | 3.3 |  |  |  |  |  |  |  |  |
| CS(=O)(=O)O.O=C(NC1CCNCC1)c1cc2c(O)c3c(c(O)c2[nH]1)C(=O)c1ccccc1C3=O | 4200 | 1800 | 41000 | 22.8 | 2600 | 1.4 |  |  |  |  |  |  |  |  |
